Experimental data: ChEMBL document CHEMBL3885861, “Open TG-GATES”

Species: Rattus norvegicus
Test: Open TG-GATES - Regimen: Daily Repeat
Type: toxicity, organism-based, Sprague-Dawley
Set-up: regimen Daily Repeat, gender Male, age 6 weeks
Conditions: in vivo, po, 40 mg/kg, route gavage, dose level Low; for APTT / Bas / Eos / Fbg / Hb / Ht / Lym / MCH / MCHC / MCV / Mono / Neu / PT / Plat / RBC / Ret / WBC: tissue Blood; for KIDNEY_L / KIDNEY_R / KIDNEY_TOTAL: tissue Kidney; for LIVER: tissue Liver; for A/G / ALP / ALT / AST / BUN / CRE / Ca / Cl / DBIL / GLC / IP / K / LDH / Na / PL / RALB / TBIL / TC / TG / TP / gamma-GTP: tissue Plasma

## Cc1cccc(C)c1OCC(C)N (configuration not stated) [MEXILETINE]
72 h, time 3 day
  TERMINAL_BW: 247.9 g
  APTT: 21.7 s
  Bas: 0%
  Eos: 0.8%
  Fbg: 327.2 mg/dL
  Hb: 13 g/dL
  Ht: 39.6%
  Lym: 79.8%
  MCH: 20.3 pg
  MCHC: 32.7%
  MCV: 62.1 fL
  Mono: 3.2%
  Neu: 15.6%
  PT: 15.2 s
  Plat: 118.3 x10_4/uL
  RBC: 638.4 x10_4/ul
  Ret: 6.1%
  WBC: 92 x10_2/uL
  KIDNEY_L: 1.1 g
  KIDNEY_R: 1.1 g
  KIDNEY_TOTAL: 2.1 g
  LIVER: 12.1 g
  A/G: 1.3
  ALP: 1808.2 IU/L
  ALT: 47.4 IU/L
  AST: 72.6 IU/L
  BUN: 16.2 mg/dL
  CRE: 0.1 mg/dL
  Ca: 10.5 mg/dL
  Cl: 105.2 meq/L
  DBIL: 0 mg/dL
  GLC: 192.4 mg/dL
  IP: 7.7 mg/dL
  K: 4.4 meq/L
  LDH: 147.4 IU/L
  Na: 141 meq/L
  PL: 151 mg/dL
  RALB: 3.2 g/dL
  TBIL: 0.006 mg/dL
  TC: 77.6 mg/dL
  TG: 133.8 mg/dL
  TP: 5.6 g/dL
  gamma-GTP: 1.6 IU/L
[…], time 7 day
  TERMINAL_BW: 275.8 g
  APTT: 22.5 s
  Bas: 0%
  Eos: 1%
  Fbg: 317.4 mg/dL
  Hb: 13 g/dL
  Ht: 39.9%
  Lym: 81%
  MCH: 20.4 pg
  MCHC: 32.5%
  MCV: 62.8 fL
  Mono: 2.4%
  Neu: 15%
  PT: 16 s
  Plat: 107.4 x10_4/uL
  RBC: 634.4 x10_4/ul
  Ret: 6.2%
  WBC: 105.8 x10_2/uL
  KIDNEY_L: 1.1 g
  KIDNEY_R: 1.1 g
  KIDNEY_TOTAL: 2.2 g
  LIVER: 12.7 g
  A/G: 1.2
  ALP: 1628.6 IU/L
  ALT: 47.8 IU/L
  AST: 72.4 IU/L
  BUN: 19.6 mg/dL
  CRE: 0.2 mg/dL
  Ca: 10.6 mg/dL
  Cl: 105.6 meq/L
  DBIL: 0 mg/dL
  GLC: 190 mg/dL
  IP: 7.2 mg/dL
  K: 4 meq/L
  LDH: 162.8 IU/L
  Na: 143.2 meq/L
  PL: 145.2 mg/dL
  RALB: 3 g/dL
  TBIL: 0.002 mg/dL
  TC: 82 mg/dL
  TG: 108.8 mg/dL
  TP: 5.6 g/dL
  gamma-GTP: 1.8 IU/L
[…], time 14 day
  TERMINAL_BW: 338.1 g
  APTT: 20.9 s
  Bas: 0%
  Eos: 0.4%
  Fbg: 302.8 mg/dL
  Hb: 13.1 g/dL
  Ht: 40.8%
  Lym: 80.4%
  MCH: 20.6 pg
  MCHC: 32.1%
  MCV: 64.2 fL
  Mono: 2.2%
  Neu: 16%
  PT: 15.9 s
  Plat: 119 x10_4/uL
  RBC: 634.2 x10_4/ul
  Ret: 7.8%
  WBC: 92.2 x10_2/uL
  KIDNEY_L: 1.3 g
  KIDNEY_R: 1.3 g
  KIDNEY_TOTAL: 2.6 g
  LIVER: 15.2 g
  A/G: 1.1
  ALP: 1520 IU/L
  ALT: 43.4 IU/L
  AST: 69.6 IU/L
  BUN: 18.6 mg/dL
  CRE: 0.2 mg/dL
  Ca: 10.5 mg/dL
  Cl: 106.8 meq/L
  DBIL: 0 mg/dL
  GLC: 196.8 mg/dL
  IP: 6.8 mg/dL
  K: 4.2 meq/L
  LDH: 154.2 IU/L
  Na: 141.4 meq/L
  PL: 152.8 mg/dL
  RALB: 3 g/dL
  TBIL: 0.002 mg/dL
  TC: 80.4 mg/dL
  TG: 136.8 mg/dL
  TP: 5.9 g/dL
  gamma-GTP: 2.4 IU/L
[…], time 28 day
  TERMINAL_BW: 397.8 g
  APTT: 22.8 s
  Bas: 0%
  Eos: 1%
  Fbg: 323.4 mg/dL
  Hb: 14.9 g/dL
  Ht: 43.2%
  Lym: 79.8%
  MCH: 19.4 pg
  MCHC: 34.5%
  MCV: 56.3 fL
  Mono: 2.4%
  Neu: 15.6%
  PT: 15.9 s
  Plat: 101.8 x10_4/uL
  RBC: 766.6 x10_4/ul
  Ret: 2.8%
  WBC: 104.7 x10_2/uL
  KIDNEY_L: 1.4 g
  KIDNEY_R: 1.4 g
  KIDNEY_TOTAL: 2.9 g
  LIVER: 17.1 g
  A/G: 1
  ALP: 1106 IU/L
  ALT: 37.8 IU/L
  AST: 62.4 IU/L
  BUN: 17.6 mg/dL
  CRE: 0.2 mg/dL
  Ca: 10.5 mg/dL
  Cl: 106 meq/L
  DBIL: 0 mg/dL
  GLC: 197.2 mg/dL
  IP: 6.5 mg/dL
  K: 3.8 meq/L
  LDH: 154.6 IU/L
  Na: 142.8 meq/L
  PL: 146.4 mg/dL
  RALB: 3.1 g/dL
  TBIL: 0.014 mg/dL
  TC: 67.8 mg/dL
  TG: 174.2 mg/dL
  TP: 6.1 g/dL
  gamma-GTP: 2.4 IU/L
